Laboratory results: PMC6150216, “Oleanane-Type Saponins from the Roots of Ligulariopsis shichuana and Their α-Glucosidase Inhibitory Activities” (Molecules : A Journal of Synthetic Chemistry and Natural …, 2017)
“Also recorded” adds a separate entry of the source.

Columns and labels:
glucose-loaded rats = test system: glucose-loaded rats; design: method as in PMID 11237187; settings: cited from earlier work
yeast α-glucosidase = assay: α-Glucosidase inhibitory activity assay; assay type: biochemical; settings: for IC50: compound concentration that inhibits α-glucosidase activity by 50%, acarbose positive control, read-out: IC50 against α-glucosidase; for α-glucosidase inhibitory activity (in words): qualitative statement
Source text: α-Glucosidase inhibitory activity was examined by the method described by Omar et al..

COC(=O)[C@H]1O[C@@H](O[C@H]2CC[C@]3(C)[C@H]4CC=C5[C@@H]6CC(C)(C)CC[C@]6(C(=O)O)CC[C@@]5(C)[C@]4(C)CC[C@H]3C2(C)C)[C@H](O)[C@@H](O)[C@@H]1O [Compound 8, calenduloside E 6′-methyl ester]
effect on the incensement of serum glucose levels (glucose-loaded rats): significant effects | IC50 (yeast α-glucosidase): 134 ± 3.3 µM

CC1(C)CC[C@]2(C=O)[C@@H](O)C[C@]3(C)C(=CC[C@@H]4[C@@]5(C)CC[C@H](O[C@@H]6O[C@H](C(=O)O)[C@@H](O)[C@H](O)[C@H]6O)C(C)(C)[C@@H]5CC[C@]43C)[C@@H]2C1 [Compound 1, Ligushicoside A]
IC50 (yeast α-glucosidase): 18.7 ± 1.7 µM | α-glucosidase inhibitory activity (in words) (yeast α-glucosidase): excellent inhibitory activities; also recorded: excellent inhibitory activity

CC1(C)CC[C@]2(C(=O)O)CC[C@]3(C)C(=CC[C@@H]4[C@@]5(C)CC[C@H](O[C@@H]6O[C@H](C(=O)O)[C@@H](O)[C@H](O)[C@H]6O)C(C)(C)[C@@H]5CC[C@]43C)[C@@H]2C1 [Compound 7, calenduloside E]
effect on the incensement of serum glucose levels (glucose-loaded rats): significant effects; also recorded: strongly inhibited | IC50 (yeast α-glucosidase): 57.6 ± 6.8 µM

COC(=O)[C@H]1O[C@@H](O[C@H]2CC[C@]3(C)[C@H]4CC=C5[C@@H]6CC(C)(C)CC[C@]6(C=O)[C@@H](O)C[C@@]5(C)[C@]4(C)CC[C@H]3C2(C)C)[C@H](O)[C@@H](O)[C@@H]1O [Compound 2, Ligushicoside B]
IC50 (yeast α-glucosidase): 37.9 ± 3.6 µM | α-glucosidase inhibitory activity (in words) (yeast α-glucosidase): excellent inhibitory activities; also recorded: excellent inhibitory activity

CC1(C)CC[C@]2(CO)[C@@H](O)C[C@]3(C)C(=CC[C@@H]4[C@@]5(C)CC[C@H](O[C@@H]6O[C@H](C(=O)O)[C@@H](O)[C@H](O)[C@H]6O)C(C)(C)[C@@H]5CC[C@]43C)[C@@H]2C1 [Compound 6, longispinogenin 3-O-β-D-glucuronopyranoside]
IC50 (yeast α-glucosidase): 42.6 ± 5.9 µM

COC(=O)[C@H]1O[C@@H](O[C@H]2CC[C@]3(C)[C@H]4CC=C5[C@@H]6CC(C)(C)CC[C@]6(C)[C@@H](O)C[C@@]5(C)[C@]4(C)C[C@@H](O)[C@H]3C2(C)C)[C@H](O)[C@@H](O)[C@@H]1O [Compound 3, Ligushicoside C]
IC50 (yeast α-glucosidase): 105 ± 4.3 µM

COC(=O)[C@H]1O[C@@H](O[C@H]2CC[C@]3(C)[C@H]4CC=C5[C@@H]6CC(C)(C)CC[C@]6(CO)[C@@H](O)C[C@@]5(C)[C@]4(C)CC[C@H]3C2(C)C)[C@H](O)[C@@H](O)[C@@H]1O [Compound 5, Ligushicoside E]
IC50 (yeast α-glucosidase): 154 ± 11.2 µM

COC(=O)[C@H]1O[C@@H](O[C@H]2CC[C@]3(C)[C@H]4CC=C5[C@@H]6CC(C)(C)CC[C@]6(CO)[C@@H](O)C[C@@]5(C)[C@]4(C)C[C@@H](O)[C@H]3C2(C)C)[C@H](O)[C@@H](O)[C@@H]1O [Compound 4, Ligushicoside D]
IC50 (yeast α-glucosidase): 89.7 ± 5.1 µM
